Assay results published in patent US10125365B2, “Micro-RNAs and compositions comprising same for the treatment and diagnosis of serotonin-, adrenalin-, noradrenalin-, glutamate-, and corticotropin-releasing hormone- associated medical conditions” (Yeda Research and Development Co. Ltd., priority 2014, dated 2018).

Tests used:
Htr1a 3′UTR = assay: Luciferase reporter assay, Htr1a 3′UTR; format: cell-based, mouse; conditions: for repression of Htr1a 3′UTR (luciferase): HEK293T cells, miR over-expressing vector vs empty vector; for seed match through which Htr1a 3′UTR is repressed: Htr1a miR-135 seed matches mutated individually or both
Procedure: (§1) 3′UTR sequences of Slc6a4, Htr1a, MaoA and Tph2 were PCR amplified from mouse genomic DNA, or total brain cDNA. 3′UTR PCR fragments were ligated into pGEM-T easy vector (Promega) according to the manufacturer's guidelines, and further subcloned into a single NotI site at the 3′ end of luciferase in the Psicheck2 reporter plasmid (Promega). […] Cloning orientation was verified by diagnostic cuts and by sequencing.
(§2) HEK293T cells were grown on poly-L-lysine in 48-well format to a 70-85% confluence and transfected using Polyethyleneimine with the following plasmids: 5 ng of Psicheck2-3′UTR plasmid and 215 ng of over-expressing vector for a specific miRNA, or empty-miR-vec over-expression plasmids. 24 hours following transfection cells were lysed and luciferase reporters activity were assayed as previously described [Chen A. et al. Mol Endocrinol (2005) 19: 441-58]. Renilla luciferase values were normalized to control firefly luciferase levels (transcribed from the same vector but not affected by 3′UTR tested) and averaged across six well repetitions per condition.
3′UTR sequence of Htr1a was PCR amplified from mouse genomic DNA. 3′UTR PCR fragments were ligated into pGEM-T easy vector (Promega) according to the manufacturer's guidelines, and further subcloned into a single NotI site at the 3′ end of luciferase in the Psicheck2 reporter plasmid (Promega). Cloning orientation was verified by diagnostic cuts and by sequencing.
as §2, with “plasmids:” for “plasmids: 5 ng of”, “Psicheck2-3′UTR plasmid, pre-mmu-miR-182 over-expression in pEGFP” for “Psicheck2-3′UTR”, “plasmid” for “plasmid and 215 ng of over-expressing vector for a specific miRNA,”, “pEGFP plasmid alone (clontech).” for “empty-miR-vec over-expression plasmids.”
3′ UTRs sequences of Slc6a4 and Htr1a were PCR amplified from mouse genomic DNA. 3′UTRs PCR fragments were ligated into pGEM-T easy vector (Promega) according to the manufacturer's guidelines, and further sub-cloned into a single NotI site at the 3′ end of luciferase in the psiCHECK-2 reporter plasmid (Promega). […] Cloning orientation was verified by diagnostic cuts and sequencing.
Twenty-four hours following transfection cells were lysed and luciferase reporter activities were assayed as previously described (Kuperman et al., 2011). […]

Slc6a4 3′UTR = assay: Luciferase reporter assay, Slc6a4 3′UTR; format: cell-based, mouse; conditions: HEK293T cells, miR over-expressing vector vs empty vector
Procedure: as §1, §2
3′ UTRs sequences of Slc6a4 and Htr1a were PCR amplified from mouse genomic DNA. 3′UTRs PCR fragments were ligated into pGEM-T easy vector (Promega) according to the manufacturer's guidelines, and further sub-cloned into a single NotI site at the 3′ end of luciferase in the psiCHECK-2 reporter plasmid (Promega). […]

mice [1] = assay: Tail suspension test; format: in vivo, mouse; conditions: miR135b KD and control KD mice
Procedure: The tail suspension test was performed in the TSE Tail Suspension Monitor (TSE Systems, Bad Homburg, Germany). Each mouse was taped by the tip of its tail, and suspended from the force sensor for 10 minutes. Time spent immobile and time spent struggling were calculated and recorded by the software based on pre-set thresholds.

miR-135a = assay: Real time PCR of miR-135a in raphe nucleus after antidepressant treatment; format: in vivo, mouse; conditions: mice, 20 mg/kg i.p., acute or chronic administration
Procedure: Mice received i.p. injection of tricyclic-Imipramine, or SSRI-Fluoxetine, or NRI-Reboxetine (20 mg/kg in saline) or saline.
Blunted 14G syringes were used to extract the RN region from 3 mm slices removed from the matrix.
(§3) For behavioral testing, mice were injected with 20 mg/kg SSRI i.p. 30 minutes prior to the test.
Samples were then analyzed using SYBR® Green

miR-135b = assay: Real time PCR of miR-135b in raphe nucleus after antidepressant treatment; conditions: mice, 20 mg/kg i.p., acute or chronic administration
mice [2] = assay: Social avoidance test after chronic social defeat; format: in vivo, mouse; conditions: mice exposed to social defeat, chronic treatment vs saline
Procedure: Mice were subjected to a social defeat protocol as previously described (Elliott et al., 2010). Briefly, mice were placed in a home cage of an aggressive ICR mouse where they physically interacted for five minutes. […] Perforated clear Plexiglas dividers were then placed between the animals and the mice remained in the same cage for 24 hours to allow sensory contact. The procedure was then repeated with an unfamiliar ICR mouse for 10 consecutive days.
as §3
Social avoidance test: In the social avoidance test, mice were placed in a 15 cm×35 cm arena with a small 15 cm×8 cm neighboring chamber separated by a divider with small open slits allowing full sensory contact. The tested mice were allowed to habituate to the arena for three minutes, and then an unfamiliar ICR mouse was placed in the neighboring chamber for another three minutes. Time spent near the divider was quantified using video tracking by Ethovision software (Noldus, Wageningen, Netherlands). Interaction ratio was calculated by dividing the time the mice spent in a defined area near the unfamiliar ICR to the time the mice spent in the same area during habitation, and multiplied by 100.

miR-19a/b = miR-19a/b levels in prefrontal cortex after Reboxetine; format: in vivo, mouse; conditions: mice
Text: These animals will be also tested for anxiety like behavior, locomotor activity and memory performance. Furthermore, the levels of expression of miR-19a and miR-19b are examined in different regions of interest (E.G the hippocampus, amygdala and forebrain) following an acute and chronic systemic treatment with the Noradrenaline reuptake inhibitor Reboxetine in WT mice.
The physiological link between miRNA-19 and Adrb1 was studied by assessing the level of miR-19a/b in the prefrontal cortex (PFC) of mice that were injected with Reboxetine, a noradrenalin reuptake inhibitor (NRI), either acutely or chronically (FIGS. 12A-D).

Molecule	repression of Htr1a 3′UTR (luciferase) (Htr1a 3′UTR)	seed match through which Htr1a 3′UTR is repressed (Htr1a 3′UTR)	repression of Slc6a4 3′UTR (luciferase) (Slc6a4 3′UTR)	miR-135a expression levels in the RN (miR-135a)	further results
miR-135b: mature miR-135b, Accession No. MIMAT0000758 (SEQ ID NO: 62); tested via overexpressing vector (SEQ ID NO: 211) (UAUGGCUUUUCAUUCCUAUGUGA; listed as Homo sapiens)	approximately 50%	via both predicted sites	approximately 50%		
CNCCC(Oc1ccc(C(F)(F)F)cc1)c1ccccc1 (stereo not drawn) [Fluoxetine]				robust increase	immobility time, tail suspension test, treated vs basal (mice [1]): decrease in immobility time
CN(C)CCCN1c2ccccc2CCc2ccccc21 [Imipramine]					miR-135b expression levels in the RN (miR-135b): increased; social avoidance (interaction ratio) (mice [2]): not those who received imipramine developed social avoidance; miR-135a expression levels in the RN (miR-135a; 20 mg/kg): increased; miR-135a expression levels in the RN (miR-135a; listed as imipramine, 20 mg/kg): significantly increased
miR-135a: mature miR-135a, Accession No. MIMAT0000428 (SEQ ID NO: 61); tested via overexpressing vector (SEQ ID NO: 210) (UAUGGCUUUUUAUUCCUAUGUGA; listed as Homo sapiens)	approximately 30%	via the distal and not the proximal seed match	approximately 30%		
CCOc1ccccc1OC(c1ccccc1)C1CNCCO1 (stereo not drawn) [Reboxetine]				no differences	miR-19 a/b levels in the PFC, acute administration (miR-19a/b; acute): down regulated; miR-19 a/b levels in the PFC, chronic administration (miR-19a/b; chronic): upregulated
